# What was measured:
# [1] = system: patients with osteoarthritis of the knee; assay: Double blind, randomized study in osteoarthritis of the knee: adherence and adverse events; format: in vivo, human; details: 90-day trial, 50 patients randomized to two groups
# Description: (§1) After giving their written informed consent, patients were assessed at baseline for demographic and clinical characteristics. They were then randomized to receive either glucosamine sulphate or a combination of glucosamine sulphate, Boswellia serrata and curcuminoids twice-daily in a double blind manner for a total period of 90 days. Both the medications were identical in appearance and taste. Treatment of associated disease was allowed at the discretion of the physician. Patients were assessed at baseline and at the end of 90 days. Four separate 10 cm visual analogue scales (VAS) were used to measure pain in affected knee at rest, on movement and the patients overall assessment of swelling and morning stiffness. VAS was scored from 0 to 10, where 0 indicates no pain/swelling/stiffness and 10 is the worst pain/swelling/stiffness imaginable.
# (§2) The Western Ontario McMaster Universities Osteoarthritis Index (WOMAC) (8) was used to evaluate pain, stiffness and physical function of the knee. The pain and stiffness subscales of the WOMAC have scores of 0-20 and 0-8 respectively, with 0 representing no pain or stiffness. […] Adherence to trial medication was recorded. Adverse events, patient withdrawals and concomitant illnesses were recorded in accordance with good clinical practice guidelines.
# [2] = system: patients with osteoarthritis of the knee; assay: Double blind, randomized study in osteoarthritis of the knee: VAS assessment of pain, stiffness and swelling; format: in vivo, human; details: twice-daily for 90 days, VAS scored 0 to 10, baseline vs end of 90 days
# Source text: The institutional ethics committee approved the study protocol. Patients were recruited from the orthopaedic outpatient clinic of a tertiary care hospital. Consecutive outpatients of either sex, aged between 40-65 years in ARA functional class I, II or III and radiologically diagnosed to have osteoarthritis of the knee were identified. Clinically pain or discomfort should have been experienced in the affected knee on most days for the previous 3 months. Of these, patients already undergone knee arthroplasty, taken glucosamine in the previous 3 months or any intraarticular injection within previous month, having renal and/or hepatic disease, diabetes mellitus or a disabling co-morbidity were excluded.
# as §1, with “Four separate 10 cm visual analogue scales (VAS) were used to measure pain in affected knee at rest, on movement and the patients overall assessment of swelling and morning stiffness.” left out
# as §2, with “knee.” for “knee. The pain and stiffness subscales of the WOMAC have scores of 0-20 and 0-8 respectively, with 0 representing no pain or stiffness.”
# The primary outcome measure was the change in VAS and WOMAC assessment of pain and stiffness in the affected knee. Response to treatment was analysed on an intention to treat basis, and the continuous variables were tested for significance by the standard error of difference in means. Categorical data were expressed as percentages with their 95% confidence intervals (CI). […]
smiles,measurement,setting,value
N[C@H]1C(O)O[C@H](CO)[C@@H](O)[C@@H]1O.O=S(=O)(O)O (some centres unmarked) [glucosamine sulphate],Patients who reported headache,[1],4 (16.0%) patients (%)
same,Patients who reported increase in pain,[1],3 (12.0%) patients (%)
same,Mean (95% CI) decrease in VAS score for morning stiffness,[2],0.13
same,Mean (95% CI) decrease in VAS score for pain on use,[2],0.27
same,Mean (95% CI) decrease in VAS score for swelling,[2],0.45

# From patent US20080020998A1, “Sustained release compositions for the therapeutic management of pain, inflammation and inflammation-associated disorders and prophylactic/ therapeutic methods thereof” (priority 2006, published 2008)
